Experimental data reported in publication PMC3009956, “Human immunome, bioinformatic analyses using HLA supermotifs and the parasite genome, binding assays, studies of human T cell responses, and immunization of HLA-A*1101 transgenic mice including novel adjuvants provide a foundation for HLA-A03 restricted CD8^+T cell epitope based, adjuvanted vaccine …” (Immunome Research, 2010).
pIC50: −log10 of the molar value. Where no end group is shown, it is not given here.

How the values were obtained:
[1] = tested on: splenocytes of HLA-A*1101 transgenic mice; assay: Ex vivo IFN-γ ELISpot assay with splenocytes of immunized HLA-A*1101 transgenic mice; format: in vivo; conditions: Figure 3b; mice immunized with mixture of peptides and adjuvants compared with LpKS9-AM9-RS9
Procedure: To evaluate peptide immunogenicity, HLA-A*1101 transgenic mice were inoculated subcutaneously (s.c.) at the base of the tail using a 30-gauge needle with single peptides or a mixture of CD8^+ T cell peptides (50 μg of each peptide per mouse) and PADRE ([…]) emulsified in 20 μg of GLA-SE (TLR4 agonist) with or without Pam2Cys. Pam2Cys concentration was 5 mg/ml. For immunization with lipopeptides, HLA-A*1101 mice received 20 nmol lipopeptide dissolved in PBS or emulsified in GLA-SE. As controls, mice were injected with PBS or PBS/GLA-SE. For the lipopeptide immunizations, the mice were vaccinated twice at intervals of three weeks. For the peptide immunizations, mice were immunized three times at intervals of two weeks. For challenge studies, mice were immunized with peptide emulsions and challenged intraperitoneally (i.p.) 14 days post-immunization using 10,000 Type II parasites.
Mice were euthanized 7 to 14 days after immunization. […]
PBMC were obtained, HLA haplotype was determined, and they were processed and cryopreserved as described. […] Results were expressed as number of spot forming cells (SFCs) per 10^6 PBMCs or per 10^6 murine splenocytes.
Two-tailed P values < 0.05 were considered statistically significant. […] The experiment in Figure 7b determined immune response and imaged mice in parallel.

HLA-A*0301 = HLA-A*0301 (Homo sapiens, UniProt P04439); assay: MHC-peptide binding assay, inhibition of binding of radiolabeled standard peptide; conditions: read-out: MHC binding affinity HLA-A*0301
Excerpt: (§1) Assays were as described.

HLA-A*1101 = HLA-A*1101 (Homo sapiens, UniProt P04439, A114D/D185E/E176A/F33Y/L180Q/S129P/T187R); assay: as above; conditions: unit not given in Table 1 (same values in Table 3 as IC50 nM), newly identified peptides, read-out: Affinity HLA-A*1101
Excerpt: as §1

HLA-A*3001 = HLA-A*3001 (Homo sapiens, UniProt P04439, D140H/D185E/E176W/F33S/G80R/H175R/K168Q/R138E/R41S); assay: as above; conditions: read-out: MHC binding affinity HLA-A*3001
Excerpt: as §1

HLA-A*3101 = HLA-A*3101 (Homo sapiens, UniProt P04439, A270S/D185E/E176V/E277Q/F33T/G231S/G80R/H175R/I121M/I218V/I322F/K168Q/L300P/L318F/M331R/P217A/Q94H/R138Q/T323A/T345S/T97I/V358M); assay: as above; conditions: read-out: MHC binding affinity HLA-A*3101
Excerpt: as §1

HLA-A*3301 = HLA-A*3301 (Homo sapiens, UniProt P04439, A270S/D185E/E176V/E277Q/E87N/F33T/G231S/H175R/I121M/I218V/I322F/K168Q/K210R/L300P/L318F/M331R/P217A/Q86R/Q94H/R138Q/T323A/T345S/T97I/V358M/Y195H); assay: as above; conditions: read-out: MHC binding affinity HLA-A*3301
Excerpt: as §1

HLA-A*6801 = HLA-A*6801 (Homo sapiens, UniProt P04439, A269V/D185E/E176V/E277Q/E87N/F33Y/G231S/I121M/I166T/I218V/L180W/L300P/L318F/N151K/P208A/P217A/Q86R/R169H/T345S); assay: as above; conditions: read-out: MHC binding affinity HLA-A*6801
Excerpt: as §1

Sequence of HLA-A*3001 (P04439 25-365 limits assumed, stated change not applied): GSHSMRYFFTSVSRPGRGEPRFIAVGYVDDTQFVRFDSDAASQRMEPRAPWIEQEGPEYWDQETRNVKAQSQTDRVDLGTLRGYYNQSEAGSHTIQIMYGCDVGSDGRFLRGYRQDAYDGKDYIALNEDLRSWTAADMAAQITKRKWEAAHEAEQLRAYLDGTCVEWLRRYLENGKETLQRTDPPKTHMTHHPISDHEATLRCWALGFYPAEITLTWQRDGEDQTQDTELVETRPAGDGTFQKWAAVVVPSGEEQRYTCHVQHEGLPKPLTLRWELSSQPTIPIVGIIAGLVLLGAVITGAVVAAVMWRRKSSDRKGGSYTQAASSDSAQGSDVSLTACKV

Row | Sequence | IFN-γ production on stimulation of spleen cells by the peptide [1] | pIC50 (HLA-A*0301) | IC50 (HLA-A*1101) [nM] | pIC50 (HLA-A*3001) | pIC50 (HLA-A*3101) | pIC50 (HLA-A*3301) | pIC50 (HLA-A*6801)
1 | RSFKDLLKK | not significant | – | – | – | – | – | –
2 | STFWPCLLR | – | 7.66 | 10 | 5.90 | 8.92 | 8.47 | 9.01
3 | SSAYVFSVK | – | 7.92 | 10 | 5.74 | 7.01 | 6.74 | 8.68
4 | AVVSLLRLLK | – | 7.77 | 34 | 8.09 | 5.89 | 5.96 | 7.03
